Measured values: PubChem BioAssay (NCI)
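Compound exposure: 48 hours, 5 concentrations, 96-well plates. GI50 is the concentration that inhibits growth by half. At the TGI there is no net growth.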

What was measured:
Assay in all cases: growth of human tumour cells (NCI), 48 h
ACHN renal = system: ACHN renal
K-562 leukemia = system: K-562 leukemia
KM12 colon = system: KM12 colon
HS 578T breast = system: HS 578T breast
HCC-2998 colon = system: HCC-2998 colon
SF-268 CNS = system: SF-268 CNS
MCF7 breast = system: MCF7 breast
RPMI-8226 leukemia = system: RPMI-8226 leukemia
HT29 colon = system: HT29 colon
OVCAR-5 ovarian = system: OVCAR-5 ovarian

| SMILES | TGI (ACHN renal) [µM] | TGI (K-562 leukemia) [µM] | TGI (KM12 colon) [µM] | TGI (HS 578T breast) [µM] | TGI (HCC-2998 colon) [µM] | TGI (SF-268 CNS) [µM] | TGI (MCF7 breast) [µM] | TGI (RPMI-8226 leukemia) [µM] | TGI (HT29 colon) [µM] | TGI (OVCAR-5 ovarian) [µM] | GI50 (ACHN renal) [µM] | GI50 (HT29 colon) [µM] | GI50 (K-562 leukemia) [µM] | GI50 (OVCAR-5 ovarian) [µM] | GI50 (KM12 colon) [µM] | GI50 (HS 578T breast) [µM] | GI50 (HCC-2998 colon) [µM] | GI50 (SF-268 CNS) [µM] | GI50 (MCF7 breast) [µM] | GI50 (RPMI-8226 leukemia) [µM] |
| --- | --- | --- | --- | --- | --- | --- | --- | --- | --- | --- | --- | --- | --- | --- | --- | --- | --- | --- | --- | --- |
| CCCCOCCOCCOC1=CC(=O)c2c(O)ccc(O)c2C1=O | 3.2 | 6.25 | 3.3 | 6.5 | 3.25 | > 10 | 4.01 | > 10 |  |  |  |  |  |  |  |  |  |  |  |  |
| CC1(C)C2CCC3CC(CCC#N)CCC3C21C#N (stereo not drawn) | > 100 | > 100 | > 100 | > 100 | > 100 | > 100 | > 100 | > 100 | > 100 | > 100 |  |  |  |  |  |  |  |  |  |  |
| O=c1[nH]nc(Cc2ccccc2)n1/N=C/c1cccs1 | > 100 | > 100 | > 100 | > 100 | > 100 | > 100 | > 100 | > 100 | > 100 | > 100 |  |  |  |  |  |  |  |  |  |  |
| Cc1c(C)c2c(c(N)c1C#N)C(=O)N(O)C2=O | > 100 | > 100 | > 100 | > 100 | > 100 | > 100 | > 100 | > 100 | > 100 | > 100 |  |  |  |  |  |  |  |  |  |  |
| COc1ccc(Nc2nc3ccccc3n3cccc23)cc1OC | 69.7 | > 100 | 29.1 | > 100 | 27.6 | 53.3 | 29.6 | 54.3 | > 100 | > 100 |  |  |  |  |  |  |  |  |  |  |
| Cc1ccc(/C=C2\Sc3scc(-c4ccccc4)[n+]3C2=O)cc1 | 51.7 | 31.5 | > 49.5 | 37.5 | 75 | 45.5 | > 100 | 35.4 | 56.9 | > 100 |  |  |  |  |  |  |  |  |  |  |
| COC(=O)C1(NC(=O)C(Cc2ccccc2)N(C(=O)OC(C)(C)C)C(=O)OC(C)(C)C)CCCC1 (stereo not drawn) | > 10 | > 100 |  | > 100 | > 100 | > 100 | 64.6 | 47.1 |  | > 100 |  |  |  |  |  |  |  |  |  |  |
| Cc1cccc(C2ON=C(c3ccccc3)N2C23CC4CC(CC(C4)C2)C3)c1 (stereo not drawn) | > 10 | > 10 | > 10 | > 10 | > 10 | > 10 | > 10 | > 10 | > 10 | > 10 |  |  |  |  |  |  |  |  |  |  |
| O=c1[nH]/c(=C/c2ccc3c(c2)OCO3)c(=O)[nH]/c1=C/c1ccc2c(c1)OCO2 | > 10 | > 10 | > 10 | > 10 | > 10 | > 10 | > 10 | > 10 | > 10 | > 10 |  |  |  |  |  |  |  |  |  |  |
| CC(C)[C@@H]1CC[C@@H](C)C[C@H]1OC(=O)c1c2n(c3ccccc13)C[C@H]1OC(C)(C)O[C@@H]21 | > 100 | > 100 | > 100 | 51.9 | > 100 | > 100 | > 100 | > 100 | > 100 | > 100 |  |  |  |  |  |  |  |  |  |  |
| CC1=NN(c2nc(N)nc(NS(=O)(=O)c3cc(C)c(Cl)cc3S)n2)C(C)(C)C1 | > 10 | > 10 | > 10 | > 10 | > 10 | > 10 | > 10 | > 10 | > 10 | > 10 |  |  |  |  |  |  |  |  |  |  |
| CC(C)=CCCC(C)(OC1OC(CO)C(O)C(O)C1O)C1CCC2(C)C1C(O)CC1C3(C)CCC(O)C(C)(C)C3C(OC3OC(CO)C(O)C(O)C3OC3OC(C)C(O)C(O)C3O)CC12C (stereo not drawn) (tested in a mixture with another compound) | > 75 | > 75 | > 75 | > 75 | > 75 | > 75 | > 75 | > 75 | > 75 | > 75 |  |  |  |  |  |  |  |  |  |  |
| CC1=NN=C(C)C1N=Nc1ccc2nc(C)[nH]c2c1 | > 76.8 | > 100 | > 100 | 29.4 | > 100 | > 83.1 | > 100 | > 100 | > 100 | > 100 |  |  |  |  |  |  |  |  |  |  |
| CCC(NC(C)c1ccccc1)C(=O)c1ccc(OCc2ccccc2)c(OCc2ccccc2)c1 (stereo not drawn) | > 100 | > 100 | > 100 | > 100 | > 100 | > 100 | > 100 | > 100 | > 100 | > 100 |  |  |  |  |  |  |  |  |  |  |
| CCc1n[nH]c(=O)n1CCCCCCCCn1c(CC)n[nH]c1=O | > 100 | > 100 | > 100 | > 100 | > 100 | > 100 | > 100 | > 100 | > 100 | > 100 |  |  |  |  |  |  |  |  |  |  |
| FC(F)(F)c1ccccc1C1SCC2=Nc3ccccc3CN21 (stereo not drawn) |  | > 100 | 25.5 | 27.4 | 27.6 | 29.2 | 26.5 | > 100 | 30 | 26.6 |  |  |  |  |  |  |  |  |  |  |

| SMILES | TGI (ACHN renal) [µM] | TGI (K-562 leukemia) [µM] | TGI (KM12 colon) [µM] | TGI (HS 578T breast) [µM] | TGI (HCC-2998 colon) [µM] | TGI (SF-268 CNS) [µM] | TGI (MCF7 breast) [µM] | TGI (RPMI-8226 leukemia) [µM] | TGI (HT29 colon) [µM] | TGI (OVCAR-5 ovarian) [µM] | GI50 (ACHN renal) [µM] | GI50 (HT29 colon) [µM] | GI50 (K-562 leukemia) [µM] | GI50 (OVCAR-5 ovarian) [µM] | GI50 (KM12 colon) [µM] | GI50 (HS 578T breast) [µM] | GI50 (HCC-2998 colon) [µM] | GI50 (SF-268 CNS) [µM] | GI50 (MCF7 breast) [µM] | GI50 (RPMI-8226 leukemia) [µM] |
| --- | --- | --- | --- | --- | --- | --- | --- | --- | --- | --- | --- | --- | --- | --- | --- | --- | --- | --- | --- | --- |
| CNC(=O)c1n[nH]n(C2CCCCC2)c1=S | > 100 | > 100 | > 100 | > 100 | > 100 | > 100 | > 100 | > 100 | > 100 | > 100 |  |  |  |  |  |  |  |  |  |  |
| Cn1c(=O)c2[nH]c(N=O)nc2n(C)c1=O |  | > 100 | > 100 | > 100 | > 100 | > 100 | > 100 | > 100 | > 100 | > 100 |  |  |  |  |  |  |  |  |  |  |
| CC(C)C1CNC(=O)C2(C=NC(C(C)C)CNC(=O)C3(C=N1)CCCO3)CCCO2 (stereo not drawn) | > 10 | > 10 | > 10 | > 10 | > 10 | > 10 | > 10 | > 10 | > 10 |  |  |  |  |  |  |  |  |  |  |  |
| COc1ccc(-n2c(CCC(=O)O)nc3c2C(=O)c2ccccc2C3=O)cc1 | > 100 | > 100 | > 100 | > 100 | > 100 | > 100 | > 100 | > 100 | > 100 | > 100 |  |  |  |  |  |  |  |  |  |  |
| O=C(Nc1ccc([N+](=O)[O-])cc1)Nn1cnnc1 | > 100 | > 100 | 72.6 | 93.2 | > 100 | > 100 | > 100 | > 100 | > 100 | > 100 |  |  |  |  |  |  |  |  |  |  |
| CCOC(=O)C(NC(=O)OCc1ccccc1)C(=O)O (stereo not drawn) | > 100 | > 100 | > 100 | > 100 | > 100 | > 100 | > 100 | > 100 | > 100 | > 100 |  |  |  |  |  |  |  |  |  |  |
| O=C1OC(c2ccccc2)=NC1c1ccccc1 (stereo not drawn) | > 100 | > 100 | > 100 | > 100 | > 100 | > 100 | > 100 | > 100 | > 100 | > 100 |  |  |  |  |  |  |  |  |  |  |
| NS(=O)(=O)c1ccc(NC(=O)N/N=C/c2ccccc2O)cc1 | > 100 | > 100 | > 100 | > 100 | > 100 | > 100 | > 100 | > 100 | > 100 | > 100 |  |  |  |  |  |  |  |  |  |  |
| COC1(CC[C@@H](C)COC2OC(CO)C(O)C(O)C2O)O[C@H]2C[C@H]3[C@@H]4CC=C5C[C@@H](OC6OC(CO)C(OC7OC(C)C(O)C(O)C7O)C(O)C6OC6OC(C)C(O)C(O)C6O)CC[C@]5(C)[C@H]4CC[C@]3(C)[C@H]2[C@@H]1C (stereo partly drawn) | 13.9 | 16 | 2.65 | 3.99 | 8.5 | 6.76 | 12.9 | 13.7 | 4.3 | 10.5 | 6.24 | 1.89 | 5.12 | 1.91 | 1.01 | 1.18 | 2.97 | 2.38 | 3.74 | 3.83 |
| COc1cc(OC2OC(CO)C(O)C(O)C2O)c2c(O)c3c(=O)cc(C)oc3cc2c1 (stereo not drawn) | > 100 | > 100 | > 100 | > 100 | > 100 | > 100 | > 100 | > 100 | > 100 | > 100 |  |  |  |  |  |  |  |  |  |  |
| O=C1Oc2ccccc2C1C/C(=N\Nc1ccccc1)c1ccccc1O (stereo not drawn) | > 100 |  | 45.8 | > 100 | > 100 | > 100 | > 100 | 72.3 | 78.5 | > 100 |  |  |  |  |  |  |  |  |  |  |
| COc1ccc(/C=c2\c(=O)[nH]c3nc4ccccc4c(=O)n23)cc1 | > 100 |  | > 100 | > 100 | > 100 | > 100 | > 100 | > 100 | > 100 | > 100 |  |  |  |  |  |  |  |  |  |  |
| O=C/C(=C1/C=Cc2cc([N+](=O)[O-])ccc2S1)c1ccccc1 | > 100 | > 100 |  | > 100 | > 100 | > 100 | > 100 | > 100 | > 100 | > 100 |  |  |  |  |  |  |  |  |  |  |
| Clc1ccc(Cl)c(N=Nc2cc3c4c(c2)CCN4CCC3)c1 | > 10 | > 10 | > 10 | > 10 | > 10 | > 10 | > 10 | > 10 | > 10 |  |  |  |  |  |  |  |  |  |  |  |
| Nc1nc(NNc2cccc(F)c2)cc(=O)[nH]1 | > 100 | 74 | 56.8 | > 100 | > 100 |  | 89.1 | > 100 | 54.6 | > 100 |  |  |  |  |  |  |  |  |  |  |
